Where a chain is given by its changes, count along the chain named.

Here are results for 1 substance from paper PMC8924211 (Nature Communications, 2022).

Format in all cases: cell-based
The target of one experiment is T1, GAL2R (Homo sapiens, UniProt O43603).
T1 construct: expressed in transfected cells; host or cells: HEK293/Gα16
T1 sequence (O43603 1-387): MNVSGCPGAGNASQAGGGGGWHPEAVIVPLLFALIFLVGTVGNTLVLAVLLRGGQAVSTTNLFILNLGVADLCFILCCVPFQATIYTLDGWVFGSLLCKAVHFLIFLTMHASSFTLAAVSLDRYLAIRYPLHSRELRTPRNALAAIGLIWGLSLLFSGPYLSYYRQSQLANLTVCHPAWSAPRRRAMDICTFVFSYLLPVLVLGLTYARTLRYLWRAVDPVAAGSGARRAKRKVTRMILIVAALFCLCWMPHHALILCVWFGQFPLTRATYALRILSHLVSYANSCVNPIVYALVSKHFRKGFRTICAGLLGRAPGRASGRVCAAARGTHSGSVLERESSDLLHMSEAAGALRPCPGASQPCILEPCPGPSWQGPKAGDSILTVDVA
In words: Calcium assay, HEK293/Gα16 cells, WT GAL2R.

For the next experiment, the target named is T2, GAL2R mutants (Homo sapiens, UniProt O43603, F264A).
T2 construct: expressed in transfected cells; host or cells: HEK293
T2 sequence (O43603 1-387 F264A): T1 sequence (O43603 1-387) with F264A
As to the kind of experiment: Calcium assay, HEK293/Gα16 cells, GAL2R mutants. The conditions noted are these: GAL2R F264ECL3A.

The target in another experiment is GAL1R (Homo sapiens, UniProt P47211). In words: Calcium assay, HEK293/Gα16 cells, WT GAL1R. The conditions noted are these: HEK293/Gα16, calcium response (Supplementary Fig. 9a).
GAL1R, sequence (P47211 whole entry): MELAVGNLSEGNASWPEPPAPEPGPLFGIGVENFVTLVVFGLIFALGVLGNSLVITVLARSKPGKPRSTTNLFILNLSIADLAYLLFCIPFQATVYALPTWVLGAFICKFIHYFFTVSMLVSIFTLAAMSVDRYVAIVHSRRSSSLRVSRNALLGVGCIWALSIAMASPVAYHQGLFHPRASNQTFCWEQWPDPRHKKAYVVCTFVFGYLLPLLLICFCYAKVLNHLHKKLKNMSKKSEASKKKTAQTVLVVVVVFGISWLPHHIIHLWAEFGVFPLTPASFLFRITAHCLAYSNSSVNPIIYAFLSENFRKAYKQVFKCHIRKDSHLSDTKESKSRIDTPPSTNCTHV
Setting [1] is: response of 100 μM spexin compared to WT, mean ± S.E.M.

On to spexin, for which the maximum response (Emax) at GAL2R (setting [1]) is reported as 100±4.9%; at GAL2R (spexin, replicate 1), 101.879%; at GAL2R (spexin, replicate 2) it was 107.462%; at GAL2R (spexin, replicate 3), 90.6585%; at GAL2R mutants (setting [1]), 40.26±1.3%; on GAL2R mutants (spexin, replicate 1), 42.8699%. In addition, the maximal effect (Emax) on GAL2R mutants (spexin, replicate 2) was determined as 39.5775%; at GAL2R mutants (spexin, replicate 3) it was 38.3476%. The 50% effective concentration (EC50) on GAL2R (spexin, replicate 1) worked out at 326.8 nM; on GAL2R (spexin, replicate 2), 177.5 nM; at GAL2R (spexin, replicate 3) it was 81.38 nM. Also, the “activation of GAL1R” value on GAL1R is “did not activate”.
